The text below walks through data of US20220031654A1, “Standardized Bioflavonoid Composition for Regulation of Homeostasis of Host Defense Mechanism” (priority 2020, published 2022).

Values joined by “and” are separate entries in the source; they are usually repeats but may differ in a detail not shown here. Equal values may be shown once.

The test system of assay [1] is prostaglandin endoperoxide synthase. The settings on record: Kalkbrenner et al. 1992; read-out: IC50, inhibition of prostaglandin endoperoxide synthase; cited from earlier work.
Assay [2] has as its system cox-2 gene transcription in human colon cancer DLD-1 cells. The settings on record: Mutoh et al. 2000, read-out: IC50, suppression of cox-2 gene transcription; cited from earlier work.
Another assay deals with COX-1. The settings on record: (+)-catechin isolated from the bark of Ceiba pentandra; Noreen et al. 1998; read-out: IC50, COX-1 inhibition; cited from earlier work.
For another assay, the system named is COX-2. The settings on record: commercially available pure (+)-catechin; Noreen et al. 1998; cited from earlier work.
Assay [3] relates to Pseudomonas aeruginosa. Nature of the assay: Hyperoxia plus PA infection, bacterial load in the airways. The settings on record: RES 50 mg/kg, UP446 250 mg/kg; hyperoxia and PA.
Description: To investigate the effects of regulating natural host defense homeostasis, mice were treated with the bioflavonoid composition, UP446, at 250 mg/kg orally for seven days prior to being exposed to >90% oxygen for 48 hours (with continued UP446 treatment) before being inoculated with microbial Pseudomonas aeruginosa (PA).
Assay [4] relates to Pseudomonas aeruginosa. As to the kind of experiment: Hyperoxia plus PA infection, bacterial load in lung homogenate. In kind it is in vivo, mice. The settings on record: RES 50 mg/kg, UP446 250 mg/kg; hyperoxia and PA.
For another assay, the system named is HMGB1. Nature of the assay: Hyperoxia plus PA infection, extracellular HMGB1 in lung lavage fluids. Format: in vivo, mice. The settings on record: RES 50 mg/kg, UP446 250 mg/kg. The text has this:
Accumulation of extracellular HMGB1 in the airways can compromise innate immunity, leading to an impaired ability to clear invading pathogens and apoptotic neutrophils. This can subsequently cause acute respiratory tract infections, lung injury and even death (Entezari et al., 2012; Patel et al., 2013). To determine whether UP446-attenuated acute lung injury in bacterially infected mice exposed to hyperoxia is due to its impact on the accumulation of extracellular HMGB1 in the airways, the levels of HMGB1 were measured in the lung lavage fluids. As shown previously, prolonged exposure of these mice to hyperoxia followed by microbial infection increased the accumulation of HMGB1 in the airways. […] This elevation can be reduced by pretreatment with either resveratrol (RES) or UP446. […] This correlates with the significant enhanced ability of UP446 to improve host defense mechanisms against microbial infection in the respiratory system.

For a further assay, the system named is BAL total protein. As to the kind of experiment: Hyperoxia plus PA infection, total protein in lung lavage fluid. The settings on record: RES 50 mg/kg, UP446 250 mg/kg; >90% oxygen 48 hours, 24 hours after PA.
A further assay relates to IL-1β. Nature of the assay: LPS-induced acute lung injury, serum IL-1β ELISA. The settings on record: UP446 250 mg/kg; SB 500 mg/kg. Format: in vivo, Sprague Dawley rats. The procedure:
The presence of IL-10 in undiluted rat serum was measured using the Rat IL-10 Quantikine ELISA kit from RandD Systems (product #: RLB00) as follows: undiluted serum was added to a microplate coated with IL-1β antibody. […] The washing was repeated, and enzyme substrate was added to the plate.

In assay [5] the test system is LPS-induced endotoxemia and sepsis. Nature of the assay: LPS-induced sepsis model, survival (UP446 study). Format: in vivo, CD-1 mice. The settings on record: UP446 250 mg/kg, Sodium Butyrate 500 mg/kg oral. As for the experimental part: CD-1 mice and Sprague Dawley rats were purchased from a USDA approved vendor. Eight weeks old male CD-1 mice and SD rats were purchased form Charles River Laboratories, Inc. (Wilmington, Mass.). Animals were acclimated upon arrival and used for the study. They were housed in a temperature-controlled room (71-72° F.) on a 12-hour light-dark cycle and provided with feed and water ad libitum.
This model used survival rate of animals as the end point measurement (Wang et al., 1999). Lipopolysaccharide (LPS) is an integral component of the outer membrane of gram-negative bacteria and a major contributing factor in the initiation of a generalized inflammatory process that may lead to endotoxin shock. It is a state mediated principally by macrophages/monocytes and is attributed to excessive production of several early phase cytokines such as TNF-α, IL-1, IL-6 and gamma interferon (IFN-γ) as well as a late-stage mediator, HMGB1. Following a median lethal dose of LPS (25 mg/kg) administration dissolved in phosphate-buffered saline (PBS; Lifeline, Lot #07641), animals develop endotoxemia and HMGB1 would be detected in the serum at 8 hours and reach to a peak and plateau levels from 16 to 32 hours after LPS. […] In the current study, we monitored the mice for 4 days after LPS injection. […]
The survival rate was calculated as: 100-[(deceased mice/total number of mice)×100]%.

In a further assay the test system is CRP. The settings on record: UP446 250 mg/kg; SB 500 mg/kg.
The subject of a further assay is TNF-α. Nature of the assay: LPS-induced acute lung injury, serum TNF-α ELISA. The settings on record: UP446 250 mg/kg; SB 500 mg/kg. Format: in vivo, Sprague Dawley rats. As for the experimental part: The presence of TNF-α in undiluted rat serum was measured using the rat TNF-α Quantikine ELISA kit from RandD Systems (product #: RTA00) as follows: undiluted serum was added to a microplate coated with TNF-α antibody. […] The washing was repeated, and enzyme substrate was added to the plate.

Assay [6] concerns LPS-induced endotoxemia and sepsis. As to the kind of experiment: LPS-induced sepsis model, composition versus its constituents, Colby synergy. In kind it is in vivo, CD-1 mice. The settings on record: for Mortality rate / Survival rate: SB 500, UP894-II 250, RM405 200, RM406 50 mg/kg. The procedure: On the 8th day, mice were injected intraperitoneally (i.p.) with 25 mg/kg LPS dissolved in PBS at 10 mL/kg. Mice in the UP894-II-treated group received a daily dose of UP894-II at 250 mg/kg. All mice continued to receive the treatment daily for the duration of study, which was completed on the 6th day post LPS injection. Following a median lethal dose of LPS (25 mg/kg) by i.p. administration, animals are expected to develop sepsis within a few hours. If untreated, mice would start to die within 24 hours. Animals were observed hourly. In the current study, we monitored the mice for 6 days after LPS injection.
For the blending of these plant extracts to have unexpected synergy, the observed inhibition needs to be greater than the calculated value.
The survival rate was calculated as: 100-[(deceased mice/total number of mice)×100]%. *p≤0.05

The subject of the next assay is MIP-2/CINC-3. Nature of the assay: LPS-induced acute lung injury, lung homogenate MIP-2/CINC-3 ELISA. The settings on record: UP446 250 mg/kg; SB 500 mg/kg. On the technique in general: An ELISA detects its analyte on a solid surface through an enzyme-linked reagent.
Assay [7] deals with LPS-induced acute lung injury. Nature of the assay: LPS-induced acute lung injury, lung histopathology (H&E). Format: in vivo, Sprague Dawley rats. The procedure:
The severity of lung damage as a result of intratracheal LPS was assessed using HandE-stained lung tissue. The left lobe of the lung was used for the histopathology analysis.

[8] abbreviates: 144 hr post LPS (end of observation).

Description for BAL total protein: To investigate the effects of regulating natural host defense homeostasis, mice were treated with the bioflavonoid composition, UP446, at 250 mg/kg orally for seven days prior to being exposed to >90% oxygen for 48 hours (with continued UP446 treatment) before being inoculated with microbial Pseudomonas aeruginosa (PA). Mice were euthanized 24 hours after bacterial inoculation, the lungs were lavaged, and total protein content was determined from the lung lavage fluid.
Description for CRP: (§1) In this study, we treated Sprague Dawley rats with the test materials orally for 7 days before model induction with LPS. On the 8th day, an hour after oral treatment, LPS was instilled intratracheally (i.t.) at 10 mg/kg dissolved in 0.1 mL/100 g PBS to each rat. The normal control rats received the same volume i.t. of PBS only.
We sacrificed surviving animals 24 hours after intratracheal LPS administration. At necropsy, the bronchoalveolar lavage (BAL) was collected by intratracheal injection of 1.5 mL PBS into the right lobe of the lung, followed by a gentle aspiration at least 3 times. Pooled, recovered fluid was centrifuged at 1,500 rpm for 10 min at 4° C., and was used to measure cytokines (e.g. IL-6) and pulmonary protein levels.
The presence of CRP in rat BAL diluted 1:1,000 was measured using the C-Reactive Protein (PTX1) Rat ELISA kit from Abcam (product #: ab108827) as follows: 1:1,000 diluted BAL was added to a microplate coated with CRP antibody. After 2 hours on a plate shaker at room temperature, CRP in BAL was bound to the plate and the plate was thoroughly washed. […] After developing for 10 minutes at room temperature, a stop solution was added, and the absorbance was read at 450 nm. The concentration of CRP was calculated based on the absorbance readings of an CRP standard curve.
Description for MIP-2/CINC-3: as §1
We sacrificed surviving animals 24 hours after intratracheal LPS administration. At necropsy, the bronchoalveolar lavage (BAL) was collected by intratracheal injection of 1.5 mL PBS into the right lobe of the lung, followed by a gentle aspiration at least 3 times. Pooled, recovered fluid was centrifuged at 1,500 rpm for 10 min at 4° C., and was used to measure cytokines (e.g. IL-6) and pulmonary protein levels. This same right lobe was collected for tissue homogenization from each rat for MIP-2/CINC-3 activity analysis.
The plate was subjected to 5 washes before an enzyme-linked polyclonal CINC-3 was added and allowed to bind for 2 hours. The wells were washed another 5 times before a substrate solution was added to the wells and the enzymatic reaction was allowed to commence for 30 minutes at room temperature protected from light. […] The absorbance of each well was read at 450 nm (with a 580 nm correction) and compared to a standard curve of CINC-3 in order to approximate the amount of CINC-3 in each rat lung homogenate sample.

What is called IC50 is the midpoint of a concentration-inhibition curve. Turning to `Oc1cc(O)c2c(c1)OC(c1ccc(O)c(O)c1)C(O)C2` (stereo not shown) [Catechin], the results for the IC50 (in [1]; in assay [2]; with COX-1) were 40 µM, 415 µM and 80 µM, respectively. In the assay with COX-2, the “selectivity for COX-2” value is on record as “no selectivity for COX-2”.
`Oc1ccc(C=Cc2cc(O)cc(O)c2)cc1` [RES, resveratrol]: the “bacterial load in the airways (Mean ± SD)” value in the assay with Pseudomonas aeruginosa [3] was 2.4 ± 0.6 ×10^5 CFU/mL. In the assay on Pseudomonas aeruginosa [4], the “bacterial load in lung homogenate (Mean ± SD)” value was 0.02 ± 0.02 ×10^5 CFU/mL. Further, in the assay on HMGB1, the “reduction in the level of HMGB1 expression vs vehicle-treated hyperoxia and infection” value was found to be 74.9%. Further, the “HMGB1 expression in airways (Mean ± SD)” value with HMGB1 (densitometry arbitrary unit, hyperoxia and PA) amounted to 29.2 ± 16.5 AU. Also, in the assay on BAL total protein, the “BAL Total protein content (Mean ± SE)” value is 526.0 ± 15.5 µg/mL.
In the case of `CCCC(=O)[O-].[Na+]` [Sodium Butyrate], in the assay with IL-1β, the “reduction in serum IL-1β level (printed IL-10 for UP446)” value amounted to 65.3%. Also, the “Survival Rate (%) after 82 hr” value in assay [5] worked out at 50%. Moreover, in the assay with CRP, the “reduction of BAL CRP level relative to vehicle” value is given as “moderate reduction in CRP level without statistical significance”. Further, the “reduction in serum TNF-α level against the vehicle control” value in the assay with TNF-α is given as 67.9%. Further, the Mortality rate in assay [6] (24 hr post LPS) came to 15.38%; in assay [6] (36 hr post LPS) it was 46.15%; in assay [6] (48 hr post LPS), 53.85%; in assay [6] (60 hr post LPS) it was 61.54%; in [6] (72 hr post LPS) it was 61.54%; in assay [6] (96 hr post LPS) it was 69.23%. In addition, the Mortality rate in [6] (120 hr post LPS) is reported as 69.23%; in assay [6] (setting [8]), 69.23%; in assay [6], 0.00%. Moreover, the Survival rate in assay [6] (24 hr post LPS) was 84.6%; in [6] (36 hr post LPS, listed as SB) it was 53.9% and 53.8%; in [6] (48 hr post LPS), 46.2%; in [6] (60 hr post LPS), 38.5%; in [6] (72 hr post LPS, listed as SB), 38.5%; in assay [6] (96 hr post LPS) it was 30.8%. The values for the Survival rate in assay [6] (120 hr post LPS), in assay [6] (setting [8]) and in [6] were 30.8%, 30.8% and 100.0%, respectively. Further, the “Deceased (total)” value in assay [6] (up to 144 hours post LPS, N=13) is on record as 9. For the same molecule, the “Survived (total)” value in assay [6] (up to 144 hours post LPS, N=13) is given as 4. Further, the “reduction in lung homogenate CINC-3 level vs vehicle” value with MIP-2/CINC-3 was 17.7%. Besides, the “changes in the histopathology evaluation relative to vehicle” value in assay [7] (SB 500 mg/kg, UP446 low-dose 125 mg/kg) was “minimal changes”. Also, the “Overall Lung Damage Severity” value in assay [7] (Score 0-4, UP446 high dose 250 mg/kg, Sodium Butyrate 500 mg/kg) is on record as 3.05 ± 0.42. The “Infiltration of PMN cell” value in assay [7] (scores 0-4, UP446 high dose 250 mg/kg, Sodium Butyrate 500 mg/kg) is recorded as 2.75 ± 0.78.
